The values that follow come from patent US6881824B1, “Peptides suitable for use in antigen specific immunosuppressive therapy” (Akzo Nobel N.V., priority 1996, dated 2005).

Ends that are not written are not given here.

Assay [1] has as its target T1, DR4 (DRB1*0401) molecules (Homo sapiens, UniProt P01903+P01911, A100K/A169T/F76Y/I96L/K127E/L162R/M171V/N62H/P40V/Q125Y/R42H/S133A/S149N/S66Y/V115G/V209L/W38E).
T1 construct: molecules were purified from the homozygous EBV-transformed human B lymphoblastoid cell lines Huly138IC2 and BM92 using the mAb; endogenous in cells
The experiment in a line: Peptide HLA-DR binding assay (semi-quantitative competition binding). Particulars: for IC50: competition with biotinylated marker peptide HA 309 Y→F, pH5.0, 44 hr RT. On the procedure:
DR4 (DRB1*0401) and DR4 (DRB1*0404) molecules were purified from the homozygous EBV-transformed human B lymphoblastoid cell lines Huly138IC2 and BM92 using the mAb t243, directed against a monomorphic determinant on the DR-complex (Lampson, L. A and R. Levy (1980), J. Immunol. 125:293 299).
The peptide binding studies were performed using a semi-quantitative competition binding assay (Joosten et al 1994, Int. Immunol. 6, 751). Briefly, purified HLA-DR molecules (30 nM DR4(DRB1*0401) or 15 nM DR4 (DRB1*0404) were incubated at pH5.0 with 50 nM biotinylated marker peptide (HA 309y→F) and a concentration range of competitor peptide in a final volume of 25 μl binding buffer (PBS containing 0.01% […], 0.05% NP-40, 5% DMSO, 1 mM AEBSF, 1 mM N-ethyl maleimide, 8 mM EDTA and 10 μm pepstatin A). After 44 hr of incubation at RT, HLA DR bound marker peptide was separated from free marker peptide using a 96 well vacuum dotblot apparatus (Hybri. dot, BRL) and a nitrocellulose membrane (Hybond ECL, Amersham, UK). The nitrocellulose filters were blocked with 0.5% DNA blocking reagent (Boehringer) in 0.1 M maleic acid, 150 mM NaCl, pH7.5.
After 0.5-1 hr, the filters were washed in PBS, 0.05% Tween 20 (Sigma) and incubated with Strepcavidin-HRPO (Southern Biotechnology) in a 1:10.000 dilution. Biotinylated peptides were detected by enhanced chemiluminescence using a Western Blot ECL kit (Amersham). Exposure of the preflashed films (Hyperfilm-ECL, Amersham) was for 10 min. The spots were analysed by scanning the films and using Image Quant/Excel software for analysis.
The affinity of a given peptide for binding DRB1*0401-encoded molecules was related to competition with the marker peptide. This relative binding affinity was defined as the peptide concentration at which the signal was reduced to 50% (IC50).

Assay [2] deals with PBMC from healthy donors carrying the DR4 (DRB1*0401) specificity. The experiment in a line: Peptide-induced proliferative responses of PBMC from healthy donors. It is filed as cell-based, human. Conditions: for Responses induced only in healthy donors: healthy donors 230, 235. On the procedure: Peripheral blood samples from 5 healthy donors carrying the DR4(DRB1*0401) specificity were obtained with informed consent and included in this study as a control.
(§1) In order to identify T-cell epitopes within HC gp-39, 59 peptides of 16 AA in length, overlapping by 10 AA were tested for their capacity to induce a proliferative response in PBMC from RA patients and healthy controls carrying the DR4 (DRB1*0401) specificity (Table 1).
(§2) PBMC obtained from heparinized venous peripheral blood were isolated by standard centrifugation on a Ficoll-Paque gradient. Cells were cultured in four-fold at a concentration of 1,5×10^5 cells/well in medium supplemented with 10% heat-inactivated, autologous plasma, L-glutamine, 2-ME and antibiotics in flatbottomed microtiter plates. Cells were incubated in medium alone or in the presence of phytohaemagglutinin (PHA) (2:5 μg/ml) to assert cell viability, or in the presence of 10 or 100 μg/ml of the HC gp-39-derived peptides. In several cases, sets of 2 or 3 sequential peptides were tested due to limited PBMC numbers of individual donors. Cultures were incubated in a total volume of 210 μl for 7 days at […] in a humidified atmosphere of 5% CO2. Cultures were pulsed during the last 18 hours with 0.25 μCi ^3H-thymidine ([^3H]TdR). Cells were harvested on glassfiber filters and [^3H] TdR incorporation was measured by gas scintillation (Packard Matrix 96 βcounter). Only peptides inducing a proliferative response at both 10 and 100 μg/ml were considered to contain a T-cell epitope. Responses were defined positive if stimulation index values (SI, antigen-specific counts per 5 min (cp5 m)/background cp5 m) exceeded or equaled 2.
(§3) T-cell reactivity to HC gp-39-derived peptide as analyzed by measuring the PBMC proliferative response in DR4 (DRB1*0401)-positive RA patients and healthy donors. Proliferative responses were tested in autologous plasma. In Table IIIA and IIIB the results of 7 experiments are presented showing the responses of RA patients (Table IIIA) and the responses of healthy donors (Table IIIB) to 59 overlapping sequences derived from HC gp-39.

Assay [3] relates to PBMC from RA patients and healthy controls carrying the DR4 (DRB1*0401) specificity. Put plainly: Proliferative responses of blood mononuclear cells, RA patients and healthy donors taken together. Conditions: individual peptides; any donor. The class given is cell-based, human. The procedure: as §1, §2, §3
The test system of assay [4] is PBMC from RA patients carrying the DR4 (DRB1*0401) specificity. The experiment in a line: Peptide-induced proliferative responses of PBMC from RA patients. It is filed as cell-based, human. Conditions: for Peptide-induced proliferative response of PBMC, RA 272: RA patient 272, 0401, R; for Responses to peptides observed in RA patients only: compared with healthy donors; for Peptide-induced proliferative response of PBMC, RA 286: RA patient 286, 0401, R; for Peptide-induced proliferative response of PBMC, RA 259: RA patient 259, 0401, R; for Peptide-induced proliferative response of PBMC, RA 276: RA patient 276, 0401, R. The procedure: This study included 7 DR4(DRB1*0401)-positive patients diagnosed as suffering from RA according to the ARA criteria (Arnett et al., (1988), Arthritis Rheum. 31, 315). Peripheral blood samples were obtained with informed consent. There were five women and two men aged 46-79 years. Their duration of disease ranged from over 10 to over 30 years. Three out of 7 patients had at least 3 swollen joints. […] All patients were on medication: Four patients were treated with prednisone, three patients received anti-rheumatic agents and 4 patients were treated with NSAID's as well.
as §1, §2, §3

Setting [5] is: 100 and 10 microgram/ml, 7 days, 3H-thymidine incorporation.

As usually defined, the IC50 is the concentration needed to halve the response being measured. Low values mean greater potency in that assay, high ones weaker potency in that assay.

For “GRSFTLASSETGVGAP [compound 41, GRSFTLASSETGVGAP]”, the “Relative affinity of binding to DR4 (DRB1*0401), in words” value (“Relative affinity of binding to DR4” below) in assay [1] is on record as “relatively high affinity”. For the same sequence, the IC50 in assay [1] (Table IIIB) was < 1 µM. Further, the “Peptide-induced proliferative response of PBMC, HD 235” value in assay [2] (healthy donor 235, 0401, R, 100 and 10 microgram/ml, 7 days, 3H-thymidine incorporation) was “pos (positive responses to both 100 and 10 microgram/ml of peptide or sets of peptides (SI>2 were regarded positive))”. Further, the “Responses induced only in healthy donors” value in assay [2] is on record as “induced only responses in healthy donors”. Also, the “Responses to the individual peptides (PBMC proliferation), identifying T-cell epitopes” value (shortened to “Responses to the individual peptides”) in assay [3] is reported as “observed in one or more donors”.
For the sequence “LAGAMVWALDLDDFQG [compound 55, LAGAMVWALDLDDFQG]”, the “Relative affinity of binding to DR4” value in assay [1] is listed as “relatively high affinity”. Besides, the IC50 in assay [1] (Table IIIA) was < 1 µM. For the same sequence, in assay [4] (setting [5]), the “Peptide-induced proliferative response of PBMC, RA 272” value was “pos (positive responses to both 100 and 10 microgram/ml of peptide or sets of peptides (SI≧2 were regarded positive))”. For the same sequence, in assay [4], the “Response of PBMC from RA patient 272 to individual peptides, in words” value (from here on “Response of PBMC … in words”) is recorded as “appeared to respond” and the “Responses to peptides observed in RA patients only” value (from here on “Responses to peptides observed”) is given as “observed in RA patients only”. In addition, in assay [3], the “Responses to the individual peptides” value is “observed in one or more donors”.
“MGIPTFGRSFTLASSE [compound 40, MGIPTFGRSFTLASSE]”: the “Relative affinity of binding to DR4” value in assay [1] is “relatively high affinity”. In addition, in assay [1] (Table IIIA), the IC50 was < 1 µM. In assay [4] (setting [5]), the “Peptide-induced proliferative response of PBMC, RA 272” value is “pos (positive responses to both 100 and 10 microgram/ml of peptide or sets of peptides (SI≧2 were regarded positive))”; the “Peptide-induced proliferative response of PBMC, RA 286” value was “pos (positive responses to both 100 and 10 microgram/ml of peptide or sets of peptides (SI≧2 were regarded positive))”. Besides, in assay [4], the “Response of PBMC … in words” value is “appeared to respond” and the “Responses to peptides observed” value is given as “observed in RA patients only”. Besides, in assay [3], the “Responses to the individual peptides” value is given as “observed in one or more donors”.
Regarding “MLRLGAPASKLVMGIP [compound 38, MLRLGAPASKLVMGIP]”, the “Relative affinity of binding to DR4” value in assay [1] was “intermediate relative affinity”. The IC50 in assay [1] (Table IIIA) lay in the range of 10 to 100 µM. In assay [4] (setting [5]), the “Peptide-induced proliferative response of PBMC, RA 259” value was “pos (positive responses to both 100 and 10 microgram/ml of peptide or sets of peptides (SI≧2 were regarded positive))”; the “Peptide-induced proliferative response of PBMC, RA 272” value is “pos (positive responses to both 100 and 10 microgram/ml of peptide or sets of peptides (SI≧2 were regarded positive))”; the “Peptide-induced proliferative response of PBMC, RA 276” value was “pos (positive responses to both 100 and 10 microgram/ml of peptide or sets of peptides (SI≧2 were regarded positive))”; the “Peptide-induced proliferative response of PBMC, RA 286” value was “pos (positive responses to both 100 and 10 microgram/ml of peptide or sets of peptides (SI≧2 were regarded positive))”. For the same sequence, the “Peptide-induced proliferative response of PBMC, RA 262” value in assay [4] (RA patient 262, 0401, R, 100 and 10 microgram/ml, 7 days, 3H-thymidine incorporation) is “pos (positive responses to both 100 and 10 microgram/ml of peptide or sets of peptides (SI≧2 were regarded positive))”. In assay [4], the “Response of PBMC … in words” value is “appeared to respond” and the “Responses to peptides observed” value is given as “observed in RA patients only”. In assay [3], the “Responses to the individual peptides” value was “observed in one or more donors”.
As to “PNLKTLLSVGGWNFGS [compound 12, PNLKTLLSVGGWNFGS]”, in assay [1], the “Relative affinity of binding to DR4” value is “relatively high affinity”. Further, the IC50 in assay [1] (Table IIIB) is < 1 µM. Besides, the “Peptide-induced proliferative response of PBMC, HD 230” value in assay [2] (healthy donor 230, 0401, R, 100 and 10 microgram/ml, 7 days, 3H-thymidine incorporation) is “pos (positive responses to both 100 and 10 microgram/ml of peptide or sets of peptides (SI>2 were regarded positive))”. Besides, the “Responses induced only in healthy donors” value in assay [2] is listed as “induced only responses in healthy donors”. The “Responses to the individual peptides” value in assay [3] is “observed in one or more donors”.
For the sequence “SPLFRGQEDASPDRFS [compound 34, SPLFRGQEDASPDRFS]”, the “Relative affinity of binding to DR4” value in assay [1] is listed as “relatively high affinity”. Further, in assay [1] (Table IIIA), the IC50 was < 1 µM. Further, in assay [4] (setting [5]), the “Peptide-induced proliferative response of PBMC, RA 272” value was “pos (positive responses to both 100 and 10 microgram/ml of peptide or sets of peptides (SI≧2 were regarded positive))”. Besides, in assay [4], the “Response of PBMC … in words” value is “appeared to respond” and the “Responses to peptides observed” value is “observed in RA patients only”. In addition, the “Responses to the individual peptides” value in assay [3] is “observed in one or more donors”.
Regarding “YTSWSQYREGDGSCFP [peptide 2, YTSWSQYREGDGSCFP]”, the “Relative affinity of binding to DR4” value in assay [1] is given as “intermediate relative affinity”. The IC50 in assay [1] (Table IIIA) is 10 to 100 µM. In addition, the “Peptide-induced proliferative response of PBMC, RA 191” value in assay [4] (RA patient 191, 0401, R, 100 and 10 microgram/ml, 7 days, 3H-thymidine incorporation) is “pos (positive responses to both 100 and 10 microgram/ml of peptide or sets of peptides (SI≧2 were regarded positive))”. Also, in assay [4] (setting [5]), the “Peptide-induced proliferative response of PBMC, RA 259” value is “pos (positive responses to both 100 and 10 microgram/ml of peptide or sets of peptides (SI≧2 were regarded positive))”; the “Peptide-induced proliferative response of PBMC, RA 272” value is “pos (positive responses to both 100 and 10 microgram/ml of peptide or sets of peptides (SI≧2 were regarded positive))”; the “Peptide-induced proliferative response of PBMC, RA 276” value is “pos (positive responses to both 100 and 10 microgram/ml of peptide or sets of peptides (SI≧2 were regarded positive))”; the “Peptide-induced proliferative response of PBMC, RA 286” value was “pos (positive responses to both 100 and 10 microgram/ml of peptide or sets of peptides (SI≧2 were regarded positive))”. For the same sequence, in assay [4], the “Response of PBMC … in words” value is on record as “appeared to respond” and the “Responses to peptides observed” value was “observed in RA patients only”. Besides, the “Responses to the individual peptides” value in assay [3] is listed as “observed in one or more donors”.
